Target: T1, human GPR119 (Homo sapiens, UniProt Q8TDV5)
T1 construct: expressed in transfected cells
T1 sequence (Q8TDV5 1-335): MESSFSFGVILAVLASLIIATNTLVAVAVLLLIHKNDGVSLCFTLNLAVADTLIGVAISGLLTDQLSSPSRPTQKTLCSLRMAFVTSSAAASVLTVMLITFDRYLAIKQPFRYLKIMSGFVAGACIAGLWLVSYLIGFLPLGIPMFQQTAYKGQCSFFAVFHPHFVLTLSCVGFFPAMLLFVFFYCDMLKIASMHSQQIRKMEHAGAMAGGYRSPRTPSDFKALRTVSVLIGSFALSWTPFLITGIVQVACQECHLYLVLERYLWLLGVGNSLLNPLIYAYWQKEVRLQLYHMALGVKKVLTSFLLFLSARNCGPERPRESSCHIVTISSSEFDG
Test: Functional cellular assay measuring GPR119-mediated cAMP release (HTRF) in HEK-293 cells stably expressing recombinant GPR119
Assay type: cell-based
Settings: cell line expressing human GPR119, 30 minutes at room temperature
Description: Functional Cellular Assays Measuring GPR119-mediated cAMP Release
Compounds of the present disclosure, which are agonists of GPR119, were characterized by functional assays measuring the cAMP response of HEK-293 cell lines stably expressing recombinant GPR119 from man, mouse or rat, or by using the hamster cell line HIT-T15 expressing GPR119 endogenously. The cAMP content was determined using a kit based on homogenous time-resolved fluorescence (HTRF) from Cisbio Corp. (cat. no. 62AM4PEC). For preparation, cells were split into T175 culture flasks and grown to near confluency in medium (DMEM/10% FCS for HEK-293 cells, and F-12K medium/10% horse serum/2.5% FCS for HIT-T15 cells, respectively). Medium was then removed and cells washed with PBS lacking calcium and magnesium ions, followed by proteinase treatment with accutase (Sigma-Aldrich, cat. no. A6964). Detached cells were washed and resuspended in assay buffer (1×HBSS; 20 mM HEPES, 0.1% BSA, 2 mM IBMX) and cellular density determined. They were then diluted to 400000 cells/mL and 25 μL-aliquots dispensed to the wells of 96-well plates. For measurement, 25 μL of test compound in assay buffer was added and incubated for 30 minutes at room temperature. After addition of HTRF reagents diluted in lysis buffer, the plates were incubated for 1 hour, followed by measuring the fluorescence ratio at 665 vs. 620 nm. Potency of the agonists was quantified by determining the concentrations that caused 50% of the maximal response/activation (EC50). See Table 6 for exemplary data obtained using the cell line expressing human GPR119.

EC50 [nM]	Compound
752	CN(C)C(=O)C1CN(c2ncc(N3CC(C)(C)C(Oc4ccc(C(=O)C5CC5)cc4)C3=O)cn2)C1 (stereo not drawn) [Compound 1-48]
1360	CN(C)C(=O)C1CN(c2ncc(N3CC(C)(C)C(Oc4ccc(C(=O)C5CC5)nc4)C3=O)cn2)C1 (stereo not drawn) [Compound 1-49]
321	CS(=O)(=O)C1CN(c2ncc(N3CC[C@H](Oc4ccc(OCC(F)(F)F)nc4)C3=O)cn2)C1 [Compound 1-50]
93	CC(C)[S+]([O-])C1CN(c2ncc(N3CC[C@@H](Oc4ccc(OCC(F)(F)F)nc4)C3=O)cn2)C1 (stereo partly drawn) [Compound 1-51]
12	COC(=O)C1CN(c2ccc(N3CC[C@@H](Oc4ccc(OCC(F)(F)F)nc4)C3=O)cn2)C1 [Compound 1-52]
351	CN(C)C(=O)C1CN(c2ncc(N3CC[C@@H](Oc4ccc(OCC(F)(F)F)cc4)C3=O)cn2)C1 [Compound 1-53]
1660	CN(C)C(=O)CC1CN(c2ncc(N3CC[C@@H](Oc4ccc(OCC(F)(F)F)nc4)C3=O)cn2)C1 [Compound 1-54]
218	CN(C)C(=O)C1CN(c2ncc(N3CC[C@@H](Oc4ccc(C(=O)C5CC5)cc4)C3=O)cn2)C1 [Compound 2-01]
137	CN(C)C(=O)C1CN(c2ncc(N3CC[C@@H](Oc4ccc(C(=O)c5ccc(F)cc5)cc4)C3=O)cn2)C1 [Compound 2-02]
324	CN(C)C(=O)C1CN(c2ncc(N3CC[C@@H](Oc4ccc(-c5nccs5)cc4)C3=O)cn2)C1 [Compound 2-03]
926	CN(C)C(=O)C1CN(c2ncc(N3CC[C@@H](Oc4ccc(C(=O)C5CC5)nc4)C3=O)cn2)C1 [Compound 2-04]
116	Cc1cnc(-c2ccc(O[C@@H]3CCN(c4cnc(N5CC(C(=O)N(C)C)C5)nc4)C3=O)cn2)s1 [Compound 2-05]
145	CN(C)C(=O)C1CN(c2ncc(N3CC[C@@H](Oc4ccc(C(=O)c5ccc(F)cc5)nc4)C3=O)cn2)C1 [Compound 2-06]
128	CN(C)C(=O)C1CN(c2ncc(N3CC[C@@H](Oc4ccc(C(=O)C5CC5)c(F)c4)C3=O)cn2)C1 [Compound 2-07]
223	CN(C)C(=O)C1CN(c2ncc(N3CC[C@@H](Oc4ccc(C(=O)C5CC(F)(F)C5)cc4)C3=O)cn2)C1 [Compound 2-08]
123	CN(C)C(=O)C1CN(c2ncc(N3CC[C@@H](Oc4ccc(C(=O)CCC(F)(F)F)cc4)C3=O)cn2)C1 [Compound 2-09]
213	CN(C)C(=O)C1CN(c2ncc(N3CC[C@@H](Oc4ccc(C(=O)C5CC5(F)F)cc4)C3=O)cn2)C1 (stereo partly drawn) [Compound 2-10]
470	CN(C)C(=O)C1CN(c2ncc(N3CC[C@@H](Oc4ccc(C(=O)C5CC(F)(F)C5)nc4)C3=O)cn2)C1 [Compound 2-11]
4920	O=C(O)C1CN(c2ncc(N3CC[C@@H](Oc4ccc(OCC5CC5)nc4)C3=O)cn2)C1 [Compound 3-01]
391	O=C(O)C1CN(c2ccc(N3CC[C@@H](Oc4ccc(OCC(F)(F)F)nc4)C3=O)cn2)C1 [Compound 3-02]
6050	O=C(O)C1CN(c2ccc(N3CC[C@@H](Oc4ccc(OCC5CC5)nc4)C3=O)cn2)C1 [Compound 3-03]
9160	O=C(O)C1CN(c2ncc(N3CC[C@@H](Oc4ccc(OCC(F)(F)F)nc4)C3=O)cn2)C1 [Compound 3-04]
2060	CNC(=O)C1CN(c2ncc(N3CC[C@@H](Oc4ccc(Oc5ccc(F)cc5)nc4)C3=O)cn2)C1 [Compound 4-01]
6710	NC(=O)CNC(=O)C1CN(c2ncc(N3CC[C@@H](Oc4ccc(Oc5ccc(F)cc5)nc4)C3=O)cn2)C1 [Compound 4-02]
4040	CCNC(=O)C1CN(c2ncc(N3CC[C@@H](Oc4ccc(Oc5ccc(F)cc5)nc4)C3=O)cn2)C1 [Compound 4-03]
5880	NC(=O)C1CN(c2ncc(N3CC[C@@H](Oc4ccc(Oc5ccc(F)cc5)nc4)C3=O)cn2)C1 [Compound 4-04]
1680	CC(C)NC(=O)C1CN(c2ncc(N3CC[C@@H](Oc4ccc(Oc5ccc(F)cc5)nc4)C3=O)cn2)C1 [Compound 4-05]

EC50 [nM]	Compound
665	O=C(C1CN(c2ncc(N3CC[C@@H](Oc4ccc(Oc5ccc(F)cc5)nc4)C3=O)cn2)C1)N1CCC(O)CC1 [Compound 4-06]
283	CCN(CC)C(=O)C1CN(c2ncc(N3CC[C@@H](Oc4ccc(Oc5ccc(F)cc5)nc4)C3=O)cn2)C1 [Compound 4-07]
1280	CC(=O)N1CCN(C(=O)C2CN(c3ncc(N4CC[C@@H](Oc5ccc(Oc6ccc(F)cc6)nc5)C4=O)cn3)C2)CC1 [Compound 4-08]
1520	O=C(NC1CC1)C1CN(c2ncc(N3CC[C@@H](Oc4ccc(Oc5ccc(F)cc5)nc4)C3=O)cn2)C1 [Compound 4-09]
437	O=C(C1CN(c2ncc(N3CC[C@@H](Oc4ccc(Oc5ccc(F)cc5)nc4)C3=O)cn2)C1)N1CCCC1 [Compound 4-10]
915	O=C(C1CN(c2ncc(N3CC[C@@H](Oc4ccc(Oc5ccc(F)cc5)nc4)C3=O)cn2)C1)N1CC(O)C1 [Compound 4-11]
5750	O=C(NCCO)C1CN(c2ncc(N3CC[C@@H](Oc4ccc(Oc5ccc(F)cc5)nc4)C3=O)cn2)C1 [Compound 4-12]
244	CCNC(=O)C1CN(c2ncc(N3CC[C@@H](Oc4ccc(OCC(F)(F)F)nc4)C3=O)cn2)C1 [Compound 4-13]
84	CCN(CC)C(=O)C1CN(c2ncc(N3CC[C@@H](Oc4ccc(OCC(F)(F)F)nc4)C3=O)cn2)C1 [Compound 4-14]
84	O=C(C1CN(c2ncc(N3CC[C@@H](Oc4ccc(OCC(F)(F)F)nc4)C3=O)cn2)C1)N1CCCC1 [Compound 4-15]
213	CNCCOC(=O)C1CN(c2ncc(N3CC[C@@H](Oc4ccc(OCC(F)(F)F)nc4)C3=O)cn2)C1 [Compound 4-16]
261	CN(CCO)C(=O)C1CN(c2ncc(N3CC[C@@H](Oc4ccc(OCC(F)(F)F)nc4)C3=O)cn2)C1 [Compound 4-17]
398	CN(CC(N)=O)C(=O)C1CN(c2ncc(N3CC[C@@H](Oc4ccc(OCC(F)(F)F)nc4)C3=O)cn2)C1 [Compound 4-18]
85	CN(C(=O)C1CN(c2ncc(N3CC[C@@H](Oc4ccc(OCC(F)(F)F)nc4)C3=O)cn2)C1)C1CC1 [Compound 4-19]
82	CC(C)N(C)C(=O)C1CN(c2ncc(N3CC[C@@H](Oc4ccc(OCC(F)(F)F)nc4)C3=O)cn2)C1 [Compound 4-20]
245	NC(=O)C1CN(c2ncc(N3CC[C@@H](Oc4ccc(OCC(F)(F)F)nc4)C3=O)cn2)C1 [Compound 4-21]
116	O=C(C1CN(c2ncc(N3CC[C@@H](Oc4ccc(OCC(F)(F)F)nc4)C3=O)cn2)C1)N1CCC1 [Compound 4-22]
956	COCC(=O)NC1CN(c2ncc(N3CC[C@@H](Oc4ccc(OCC(F)(F)F)nc4)C3=O)cn2)C1 [Compound 4-23]
1350	CC(=O)NC1CN(c2ncc(N3CC[C@@H](Oc4ccc(OCC(F)(F)F)nc4)C3=O)cn2)C1 [Compound 4-24]
88	CNC(=O)C1CN(c2ccc(N3CC[C@@H](Oc4ccc(OCC(F)(F)F)nc4)C3=O)cn2)C1 [Compound 4-25]
101	NC(=O)C1CN(c2ccc(N3CC[C@@H](Oc4ccc(OCC(F)(F)F)nc4)C3=O)cn2)C1 [Compound 4-26]
122	[2H]C([2H])([2H])N(C(=O)C1CN(c2ncc(N3CC[C@@H](Oc4ccc(OCC(F)(F)F)nc4)C3=O)cn2)C1)C([2H])([2H])[2H] [Compound 4-27]
458	NC(=O)OC1CN(c2ncc(N3CC[C@@H](Oc4ccc(OCC(F)(F)F)nc4)C3=O)cn2)C1 [Compound 5-01]
1030	CN(C)C(=O)OC1CN(c2ncc(N3CC[C@@H](Oc4ccc(OCC(F)(F)F)nc4)C3=O)cn2)C1 [Compound 5-02]
663	O=C1[C@H](Oc2ccc(OCC(F)(F)F)nc2)CCN1c1cnc(N2CC(n3cn[nH]c3=O)C2)nc1 [Compound 5-03]
146	O=C(NCO)C1CN(c2ccc(N3CC[C@@H](Oc4ccc(OCC(F)(F)F)nc4)C3=O)cn2)C1 [Compound 5-04]
67	CN(CO)C(=O)C1CN(c2ccc(N3CC[C@@H](Oc4ccc(OCC(F)(F)F)nc4)C3=O)cn2)C1 [Compound 5-05]
